From patent US10745401B2, “Condensed lactam derivative” (Sumitomo Dainippon Pharma Co., Ltd., priority 2018, dated 2020)

What was measured:
[1] = target: T1, human 5-HT1A receptor (Homo sapiens (Human), UniProt P08908); assay: Test 1: binding activity for human 5-HT1A receptor ([3H]8-OH-DPAT, CHO cell membrane fraction)
How it was run: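 Membranes incubated with [3H]8-OH-DPAT and compound for 60 min at room temperature, then filtered on polyethylenimine-coated glass-fibre plates and counted by liquid scintillation. IC50 from Hill analysis; Ki = IC50/(1+S/Kd), Kd from saturation binding on the same membranes.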

[2] = target: T2, human 5-HT2A receptor (Homo sapiens (Human), UniProt P28223); assay: Test 1: binding activity for human 5-HT2A receptor ([3H]Ketanserin, CHO cell membrane fraction)
How it was run: (§1)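 CHO-cell membranes with [3H]ketanserin (5-HT2A) or [3H]spiperone (D2) were incubated with compound for 60 min at room temperature, then filtered, and bound radioactivity was counted by scintillation. Ki = IC50/(1+S/Kd), with ligand Kd from saturation binding on the same membranes.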

[3] = target: human D2 receptor (Homo sapiens (Human), UniProt P14416); assay: Test 1: binding activity for human D2 receptor ([3H]Spiperone, CHO cell membrane fraction); details: for Ki: human D2 receptor, [3H]Spiperone; for D2 Ki/5-HT1A Ki / D2 Ki/5-HT2A Ki: selectivity ratio
How it was run: as §1

[4] = target: T1, human 5-HT1A receptor; assay: Test 2: agonist activity for human 5-HT1A receptor ([35S]GTPγS binding); format: biochemical; details: for EC50: [35S]GTPγS binding, concentration at which half the activity of Emax was obtained; for Emax at 10 µM: agonist activity in the presence of 10 μM of compound, relative to 100 μmol/L 5-HT
How it was run: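 Membranes from CHO cells expressing human 5-HT1A incubated with compound, GDP-containing buffer and [35S]GTPγS for 60 min at room temperature. Bound radioactivity collected by glass-fibre filtration and counted by liquid scintillation; agonist activity derived from a formula.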

[5] = target: T2, human 5-HT2A receptor; assay: Test 3: antagonist activity for human 5-HT2A receptor (aequorin luminescence, CHO-K1 cells); format: cell-based; details: CHO-K1 cells, 1 nmol/L 5-HT
How it was run: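 CHO-K1 cells transiently co-expressing aequorin, Gα16 and receptor; compound in DMSO added and luminescence recorded on FDSS/μCELL.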

[6] = Test 4: metabolic stability test in human hepatic microsome; format: in vitro ADME; details: 0.1 mg/mL microsome, 0.1 μmol/L compound, 37° C., 30 minutes
How it was run: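 Compound at 0.1 μmol/L incubated 30 min at 37° C with human liver microsomes (0.1 mg/mL) and NADPH (3.2 mmol/L) in 25 mmol/L phosphate buffer, pH 7.4. Residual compound measured by LC-MS; stability (mL/min/mg protein) = −LN(residual ratio)/30/0.1.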

[7] = target: hERG channel (Homo sapiens (Human), UniProt Q12809); assay: Test 6-1: inhibitory activity for hERG channel (auto patch clamp, Qpatch); format: cell-based; details: for hERG inhibition IC50 (nmol/L)/5-HT1A Ki (nmol/L): ratio of hERG IC50 to 5-HT1A Ki; for hERG inhibition IC50 (nmol/L)/5-HT2A Ki (nmol/L): ratio of hERG IC50 to 5-HT2A Ki; for IC50: whole cell auto patch clamp, hERG-CHO cells, read-out: hERG inhibition IC50
How it was run: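 Whole-cell patch clamp on an automated system using CHO cells stably expressing human hERG (IKr); 15 s pulse interval. Four increasing compound concentrations applied cumulatively; mean peak tail current from last 3 stimulations per concentration used. IC50 from inhibition versus pre-compound current, fitted by Hill equation.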

T2 sequence (P28223 whole entry): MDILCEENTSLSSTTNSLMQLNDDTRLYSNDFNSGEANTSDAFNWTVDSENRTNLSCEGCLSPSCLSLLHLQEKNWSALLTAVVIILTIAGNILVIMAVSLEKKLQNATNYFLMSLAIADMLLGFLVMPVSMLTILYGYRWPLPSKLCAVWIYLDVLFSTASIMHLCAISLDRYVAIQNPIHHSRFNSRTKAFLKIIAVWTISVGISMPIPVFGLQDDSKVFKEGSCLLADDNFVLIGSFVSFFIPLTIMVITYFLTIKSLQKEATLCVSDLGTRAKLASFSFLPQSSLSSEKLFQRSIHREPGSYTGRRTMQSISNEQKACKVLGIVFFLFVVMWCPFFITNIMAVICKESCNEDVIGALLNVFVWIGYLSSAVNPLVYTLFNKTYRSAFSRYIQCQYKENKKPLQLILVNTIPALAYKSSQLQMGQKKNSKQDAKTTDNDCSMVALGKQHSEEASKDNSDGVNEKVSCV
Chain of human D2 receptor (P14416 whole entry): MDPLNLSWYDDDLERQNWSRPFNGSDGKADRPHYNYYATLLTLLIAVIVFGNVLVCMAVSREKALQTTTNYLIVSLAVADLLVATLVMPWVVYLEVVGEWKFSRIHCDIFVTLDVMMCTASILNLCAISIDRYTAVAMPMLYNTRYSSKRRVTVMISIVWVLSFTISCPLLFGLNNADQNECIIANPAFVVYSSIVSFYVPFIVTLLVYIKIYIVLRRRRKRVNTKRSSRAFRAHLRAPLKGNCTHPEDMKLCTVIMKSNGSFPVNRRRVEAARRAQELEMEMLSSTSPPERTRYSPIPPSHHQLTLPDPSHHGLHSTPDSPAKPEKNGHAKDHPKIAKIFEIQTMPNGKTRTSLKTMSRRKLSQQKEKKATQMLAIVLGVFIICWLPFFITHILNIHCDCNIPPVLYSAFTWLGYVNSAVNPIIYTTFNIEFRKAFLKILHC
T1 sequence (P08908 whole entry): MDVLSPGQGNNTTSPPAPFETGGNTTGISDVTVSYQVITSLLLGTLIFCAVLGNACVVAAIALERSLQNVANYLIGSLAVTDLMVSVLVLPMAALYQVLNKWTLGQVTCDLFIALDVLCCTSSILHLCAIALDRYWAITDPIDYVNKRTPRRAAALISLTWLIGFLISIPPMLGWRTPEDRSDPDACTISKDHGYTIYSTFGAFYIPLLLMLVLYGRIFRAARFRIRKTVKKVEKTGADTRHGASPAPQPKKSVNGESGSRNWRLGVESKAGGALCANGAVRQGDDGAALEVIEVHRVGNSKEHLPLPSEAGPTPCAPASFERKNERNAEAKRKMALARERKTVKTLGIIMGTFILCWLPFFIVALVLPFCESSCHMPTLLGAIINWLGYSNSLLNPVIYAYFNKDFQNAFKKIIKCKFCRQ
Chain of hERG channel (Q12809 whole entry): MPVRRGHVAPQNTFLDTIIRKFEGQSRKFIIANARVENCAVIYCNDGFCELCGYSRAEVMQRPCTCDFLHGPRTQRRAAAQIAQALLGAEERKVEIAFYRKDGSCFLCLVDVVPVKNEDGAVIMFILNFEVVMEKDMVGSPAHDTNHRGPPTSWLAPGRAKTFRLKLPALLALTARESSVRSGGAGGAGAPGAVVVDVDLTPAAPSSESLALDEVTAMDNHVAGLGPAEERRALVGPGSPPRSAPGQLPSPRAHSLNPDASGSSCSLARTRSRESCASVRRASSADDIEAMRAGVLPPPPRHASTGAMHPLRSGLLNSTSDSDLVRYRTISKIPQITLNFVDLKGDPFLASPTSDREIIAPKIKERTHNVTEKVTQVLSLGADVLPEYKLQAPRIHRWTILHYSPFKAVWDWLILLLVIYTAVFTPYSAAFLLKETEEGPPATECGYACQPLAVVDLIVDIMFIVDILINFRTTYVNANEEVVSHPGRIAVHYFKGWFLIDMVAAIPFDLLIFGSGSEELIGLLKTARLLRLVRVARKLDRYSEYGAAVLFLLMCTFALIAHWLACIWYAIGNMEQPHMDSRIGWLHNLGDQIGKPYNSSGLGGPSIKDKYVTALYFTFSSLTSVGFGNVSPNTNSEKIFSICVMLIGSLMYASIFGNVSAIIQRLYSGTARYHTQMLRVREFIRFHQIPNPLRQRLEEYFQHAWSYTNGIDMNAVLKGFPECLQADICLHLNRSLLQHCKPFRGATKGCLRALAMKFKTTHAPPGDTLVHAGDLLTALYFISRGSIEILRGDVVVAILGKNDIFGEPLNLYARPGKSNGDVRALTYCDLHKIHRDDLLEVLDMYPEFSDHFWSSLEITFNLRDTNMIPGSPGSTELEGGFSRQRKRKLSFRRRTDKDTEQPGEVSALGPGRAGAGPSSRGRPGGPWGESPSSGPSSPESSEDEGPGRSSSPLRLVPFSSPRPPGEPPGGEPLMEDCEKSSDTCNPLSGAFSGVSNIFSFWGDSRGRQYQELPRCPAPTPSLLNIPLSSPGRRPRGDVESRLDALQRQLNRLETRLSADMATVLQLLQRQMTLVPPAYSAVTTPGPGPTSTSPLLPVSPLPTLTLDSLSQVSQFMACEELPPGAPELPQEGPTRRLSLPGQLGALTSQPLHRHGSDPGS

| Structure (SMILES) | Ki [1] [µM] | Ki [2] [µM] | Ki [3] [µM] | D2 Ki/5-HT1A Ki [3] | D2 Ki/5-HT2A Ki [3] | EC50 [4] [µM] | Emax at 10 µM [4] [%] | IC50 ([5]; aequorin luminescence) [µM] | Metabolic stability in human hepatic microsome [6] [mL/min/mg protein] | hERG inhibition IC50 (nmol/L)/5-HT1A Ki (nmol/L) [7] | hERG inhibition IC50 (nmol/L)/5-HT2A Ki (nmol/L) [7] | IC50 [7] [µM] | IC50 [5] [µM] |
| --- | --- | --- | --- | --- | --- | --- | --- | --- | --- | --- | --- | --- | --- |
| O=C1c2ncoc2CCN1CCN1CCC(c2noc3ccccc23)CC1 [Example 190, 5-{2-[4-(1,2-Benzoisoxazol-3-yl)piperidin-1-yl]ethyl}-6,7-dihydro[1,3]oxazolo[4,5-c]pyridin-4(5H)-one] | 0.05 | 0.0514 | 2.46 | 49.3 | 47.9 | 7.21 | 11 | 0.237 | <0.05 | 32 | 31 | 1.6 |  |
| Cn1ncc2c1CCN(CCN1CCN(c3noc4ccccc34)CC1)C2=O [Example 131] | 0.279 | 0.012 | > 10 |  |  | 0.405 | 48 | 0.00953 | <0.05 |  |  | > 3 |  |
| O=C1c2cnc(OC3COC3)cc2CCN1CCN1CCN(c2nsc3ccccc23)CC1 [Example 111, 2-{2-[4-(1,2-Benzoisothiazol-3-yl)piperazin-1-yl]ethyl}-6-[(oxetan-3-yl)oxy]-3,4-dihydro-2,7-naphthyridin-1(2H)-one] | 0.00091 | 0.0019 | 1.01 | 1105 | 530 | 0.00458 | 51 |  | 0.254 | 2052 | 984 | 1.9 | 0.017 |
| Cc1cncc2c1CCN(CCN1CCN(c3noc4ccccc34)CC1)C2=O [Example 137] | 0.186 | 0.0112 | 1.08 | 5.8 | 96.4 | 4.66 | 19 | 0.0024 | <0.05 | 41 | 686 | 7.7 |  |
| Cn1ccc2c1CCCN(CCN1CCC(c3noc4ccccc34)C1)C2=O (stereo not shown) [Example 175] | 0.0178 | 0.0138 | 3.48 | 195.2 | 251.4 | 0.667 | 36 | 0.307 | 0.125 | 197 | 253 | 3.5 |  |
| Cc1nc2c(o1)C(=O)N(CCN1CCC(c3noc4ccccc34)CC1)CC2 [Example 35, 5-{2-[4-(1,2-Benzoisoxazol-3-yl)piperidin-1-yl]ethyl}-2-methyl-6,7-dihydro[1,3]oxazolo[5,4-c]pyridin-4(5H)-one] | 0.0033 | 0.0093 | 1.29 | 391 | 139 | 0.072 | 68 |  | <0.01 | 453 | 161 | 1.5 | 0.074 |
| CC1(CCN2CCN(c3noc4ccccc34)CC2)CCc2cccnc2C1=O (stereo not shown) [Example 145] | 0.0381 | 0.00115 |  |  |  | 0.0551 | 58 | 0.019 | 0.302 |  |  | > 3 |  |
| O=C1c2ncccc2CCN1CCN1CCN(c2noc3ccccc23)CC1 [Example 1, 7-{2-[4-(1,2-Benzoisoxazol-3-yl)piperazin-1-yl]ethyl}-6,7-dihydro-1,7-naphthyridin-8(5H)-one] | 0.0215 | 0.049 |  |  |  | 0.0947 | 50 |  | <0.01 |  |  | > 10 | 0.0446 |
| Cc1noc2c1C(=O)N(CCN1CCC(c3noc4ccccc34)CC1)CCC2 [Example 38] | 0.0135 | 0.00444 |  |  |  | 0.395 | 56 |  | 0.136 |  |  | 0.5 | 0.024 |
| Cc1noc2c1C(=O)N(CCN1CCN(c3noc4ccccc34)CC1)CC2 [Example 32, 5-{2-[4-(1,2-Benzoisoxazol-3-yl)piperazin-1-yl]ethyl}-3-methyl-6,7-dihydro[1,2]oxazolo[4,5-c]pyridin-4(5H)-one] | 0.124 | 0.06 |  |  |  | 0.644 | 39 |  | <0.01 |  |  | 5.5 | 0.095 |
| Cn1ncc2c1C(=O)N(CCN1CCN(c3nsc4ccccc34)CC1)CCC2 [Example 47] | 0.0169 | 0.0179 |  |  |  | 0.0922 | 65 |  | 0.418 |  |  | 4 | 0.00496 |
| Cc1cc2ccn(CCN3CCN(c4noc5ccccc45)CC3)c(=O)c2cn1 [Example 113, 2-{2-[4-(1,2-Benzoisoxazol-3-yl)piperazin-1-yl]ethyl}-6-methyl-2,7-naphthyridin-1(2H)-one] | 0.0144 | 0.0037 |  |  |  | 0.016 | 67 |  | 0.079 |  |  | 7 | 0.00863 |
| O=C1c2ncccc2CCC1CCN1CCC(c2noc3ccccc23)CC1 (stereo not shown) [Example 24] | 0.0132 | 0.00355 |  |  |  | 0.0632 | 31 |  | 0.018 |  |  | 0.4 | 0.033 |
| Cc1ncc2c(n1)CCN(CCN1CCN(c3noc4ccccc34)CC1)C2=O [Example 179] | 0.283 | 0.0229 | > 10 | >35.3 | >437.6 |  |  | 0.0708 | <0.05 | >35 | >438 | > 10 |  |
